Source: patent publication US20220111378A1, “METHODS AND SYSTEMS FOR DETERMINING TARGET SENSITIVITY TO A THERAPEUTIC FORMULA” (priority 2019, published 2022)

Experiments:
[1] = system: sterile urine sample spiked with clinical isolate EcUAH202; settings: EcUAH202 spiked into sterile urine; breakpoint concentrations; confirmed for ampicillin within approximately 5 minutes
Method: To prepare a spiked bacterial sample, 1 mL of an overnight culture was diluted into 25 mL of warm cation-adjusted Mueller Hinton broth, allowed to grow to log phase at 37 C in a shaking incubator, and counted using a hemocytometer. […] A 2-mL aliquot of the bacterial solution was added to a disposable 1-cm cuvette containing a pre-dispensed volume of water, diluent and antibiotic according to the experiment at hand. The fluids were mixed by pipetting. A no-antibiotic control was used in each experiment, which contained only the appropriate volume of water and diluent. A set of three cuvettes, such as in 41 or 43a, 43b or 43c, containing identical mixtures were assembled side-to-side into a three-centimeter light path and inserted into the prototype sensitivity module shown in FIGS. 2A and 2B. A total of four sets of cuvettes could be examined in the prototype at one time. The prototype maintains the cultures at 37 C with gentle agitation to mitigate the effects of bacterial settling. Optical transmissions through each set of cuvettes were taken every 5 seconds for the no-antibiotic control and the experimental cuvettes. The bacteria were allowed to grow from 10 minutes to two hours depending on the antibiotics and/or bacteria being tested. The final curves were analyzed to determine whether the bacteria were sensitive or resistant to each drug or drug combination. […]

[2] = system: Enterococcus faecalis EfR100; assay: Growth curves at breakpoint concentrations compared with culture results (optical AST); assay type: cell-based; settings: clinical isolate EfR100, confirmed by growth curves within approximately 33 minutes
Method: (§1) To prepare a spiked bacterial sample, 1 mL of an overnight culture was diluted into 25 mL of warm cation-adjusted Mueller Hinton broth, allowed to grow to log phase at 37 C in a shaking incubator, and counted using a hemocytometer. The bacteria were then diluted in additional warm broth to a final concentration of 1E5 to 8E5 CFU/mL. A 2-mL aliquot of the bacterial solution was added to a disposable 1-cm cuvette containing a pre-dispensed volume of water, diluent and antibiotic according to the experiment at hand. The fluids were mixed by pipetting. A no-antibiotic control was used in each experiment, which contained only the appropriate volume of water and diluent. A set of three cuvettes, such as in 41 or 43a, 43b or 43c, containing identical mixtures were assembled side-to-side into a three-centimeter light path and inserted into the prototype sensitivity module shown in FIGS. 2A and 2B. A total of four sets of cuvettes could be examined in the prototype at one time. The prototype maintains the cultures at 37 C with gentle agitation to mitigate the effects of bacterial settling. Optical transmissions through each set of cuvettes were taken every 5 seconds for the no-antibiotic control and the experimental cuvettes. The bacteria were allowed to grow from 10 minutes to two hours depending on the antibiotics and/or bacteria being tested. The final curves were analyzed to determine whether the bacteria were sensitive or resistant to each drug or drug combination.
(§2) In the proof-of-concept device used to generate the data provided in this example, a 3-cm light path and lasers at 405 nm and 532 nm were used. Antimicrobial resistance profiles of 17 clinical isolates of 11 uropathogens were followed from 20 minutes to three hours, against 8 antibiotics, both lytic and static.

[3] = system: Staphylococcus aureus SaR100; assay: as above; assay type: cell-based; settings: clinical isolate SaR100, confirmed by growth curves within approximately 42 minutes
Method: as §1, §2

[4] = system: Pseudomonas aeruginosa PaH201; assay: as above; assay type: cell-based; settings: clinical isolate PaH201, confirmed for ampicillin and ciprofloxacin within approximately 42 minutes
Method: as §1, §2

[5] = system: Escherichia coli EcUAH202; assay: as above; assay type: cell-based; settings: clinical isolate EcUAH202, confirmed for ampicillin and levofloxacin within approximately 7 minutes
Method: as §1, §2

K. pneumoniae KpH201 = settings: clinical isolate KpH201; breakpoint concentrations; confirmed by growth curves vs no-antibiotic control within approximately 20 minutes
Method: as §1, with “The bacteria were allowed to grow from 10 minutes to two hours depending on the antibiotics and/or bacteria being tested.” left out, “combination. […]” for “combination.”

[6] = system: Candida tropicalis CanTCDC345; assay: Growth curves at breakpoint concentrations compared with culture results (optical AST); assay type: cell-based; settings: clinical isolate CanTCDC345, confirmed for caspofungin within approximately 12 minutes
Method: as §1, §2

Compound	Culture results: sensitivity or resistance of the strain [1]	Culture results: sensitivity or resistance of the strain [2]	Culture results: sensitivity or resistance of the strain [3]	Culture results: sensitivity or resistance of the strain [4]	Culture results: sensitivity or resistance of the strain [5]	Culture results: sensitivity or resistance of the strain (K. pneumoniae KpH201)	Culture results: sensitivity or resistance of the strain [6]
CC1(C)S[C@@H]2[C@H](NC(=O)[C@H](N)c3ccccc3)C(=O)N2[C@H]1C(=O)O [ampicillin]	resistance	sensitivity	sensitivity	resistance	resistance	sensitivity	–
CC[C@H](C)C[C@H](C)CCCCCCCCC(=O)N[C@H]1C[C@@H](O)[C@@H](NCCN)NC(=O)[C@@H]2[C@@H](O)CCN2C(=O)[C@H]([C@H](O)CCN)NC(=O)[C@H]([C@H](O)[C@@H](O)c2ccc(O)cc2)NC(=O)[C@@H]2C[C@@H](O)CN2C(=O)[C@H]([C@@H](C)O)NC1=O [caspofungin]	–	–	–	–	–	–	sensitivity
